Measurements as given in patent US12649750B2, “Macrocyclic compounds, compositions, and methods of using thereof” (Sionna Therapeutics Inc., priority 2022, dated 2026).

These compounds were tested against T1, NBD1 (Homo sapiens, UniProt P13569) (assay: Aggregation analysis using differential static light scattering (DSLS), thermal stability of NBD1 (ΔTagg)). Conditions: ΔTagg versus DMSO control, NBD1 0.2 mg/ml.
T1 construct: Purified recombinant NBD1 was produced using previously described methods; made in house
T1 sequence (P13569 423-646 limits assumed): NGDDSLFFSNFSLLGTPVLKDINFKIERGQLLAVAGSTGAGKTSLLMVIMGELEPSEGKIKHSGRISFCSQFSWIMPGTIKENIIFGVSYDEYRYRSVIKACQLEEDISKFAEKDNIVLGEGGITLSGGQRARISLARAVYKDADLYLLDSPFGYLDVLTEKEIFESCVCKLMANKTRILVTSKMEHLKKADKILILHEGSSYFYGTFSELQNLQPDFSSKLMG
Type: binding
Procedure: Example 386. Aggregation Analysis Using Differential Static Light Scattering (DSLS)
Purified recombinant NBD1 was produced using previously described methods (A. Schmidt, J. L. Mendoza, P. J. Thomas (2011) Biochemical and Biophysical Approaches to Probe CFTR Structure (365-376) M. D. Amaral, K. Kunzelmann (eds.), Cystic Fibrosis, Methods in Molecular Biology 741, Springer Science+Business Media). The effect of test compounds on thermal stability of NBD1 was evaluated by differential static light scattering (DSLS) using the Harbinger Stargazer-384 instrument (Epiphyte Three, Toronto, Canada). Test compounds were dissolved and diluted to desired concentrations in 100% DMSO. The compounds or DMSO controls (100 nL) were stamped into wells of a […] low volume optical plate (Corning Inc., Corning, NY) using the Echo 555 acoustic liquid handler (Labcyte Inc., San Jose, CA).
NBD1 protein was diluted to 0.2 mg/ml in S200 buffer (50 mM Tris-HCl, 150 mM NaCl, 5 mM MgCl2, 2 mM ATP, 2 mM DTT, pH7.6) containing 1% glycerol. 10 uL of protein solution was aliquoted into the 384-well plate harboring the test compounds and 10 uL mineral oil was overlaid onto the protein solution, using the epMotion robotic liquid handler (Eppendorf North America, Hauppauge, NY). After placing into the Stargazer instrument, the plate was heated at 1° C. per minute to 70° C. Images were captured from 25° C. to 70° C. every 0.5° C. At the end of the experiment run, instrument software integrated image files and analyzed data automatically. A […] regression curve was generated for each well, representing the increase in light scattering over time. A temperature of aggregation (Tagg) was calculated based on the inflection point of the curve. To better compare data across experiments the average Tagg for DMSO control wells was calculated and subtracted from values for wells containing compounds to obtain a “ΔTagg” value. These ΔTagg values reflect stabilizing efficacy of the compounds. As set forth in Table 2 below, an ΔTagg value less than or equal to 5° C. is marked “A”; a value above 5° C. and less than or equal to 10° C. is marked “B”; a value greater than 10° C. and less than or equal to 25° C. is marked “C”.
In the case of `C[C@@H](Cc1cccc(C2CCCC(C)(C)CS(=O)(=O)CCc3c(c(F)cc4[nH]ccc34)Oc3ccc(F)c(c3)-c3c(C#N)cnn32)c1)C(=O)O` (mixture of isomers) [Compound 151, (2S)-3-[3-(3-Cyano-23,29-difluoro-11,11-dimethyl-13,13-dioxo-25-oxa-13λ6-thia-5,6,20-triazapentacyclo[24.3.1.02,6.016,24.017,21]triaconta-1(30),2,4,16,18,21,23,26,28-nonaen-7-yl)phenyl]-2-methyl-propanoic Acid], the “DSLS 3D (100 μM ΔT)” value is reported as “A (an ΔTagg value less than or equal to 5 °C is marked “A”)”.
For `C[C@@H](Cc1cccc(C2CCCC(C)(C)CS(=O)(=O)CCc3c(c(F)cc4[nH]ccc34)Oc3ccc(F)c(c3)-c3nn2cc3C#N)c1)C(=O)O` (mixture of isomers) [Compound 152, (2S)-3-[3-(3-Cyano-22,28-difluoro-10,10-dimethyl-12,12-dioxo-24-oxa-12λ6-thia-5,19,30-triazapentacyclo[23.3.1.12,5.015,23.016,20]triaconta-1(29),2(30),3,15,17,20,22,25,27-nonaen-6-yl)phenyl]-2-methyl-propanoic Acid], the “DSLS 3D (100 μM ΔT)” value was “C (a value greater than 10 °C and less than or equal to 25 °C is marked “C”)”.
For `C[C@H](Cc1cccc(C2NCC(F)(F)CCS(=O)(=O)CCc3c(c(F)c(F)c4[nH]ccc34)Oc3ccc(F)c(c3)-c3nc2nn3C)c1)C(=O)O` (mixture of isomers) [Compound 380, (2R)-2-Methyl-3-[3-(9,9,21,22,28-pentafluoro-3-methyl-12,12-dioxo-24-oxa-12λ6-thia-3,4,7,19,30-pentazapentacyclo[23.3.1.12,5.015,23.016,20]triaconta-1(29),2(30),4,15,17,20,22,25,27-nonaen-6-yl)phenyl]propanoic Acid], the “DSLS 3D (100 μM ΔT)” value was “A (an ΔTagg value less than or equal to 5 °C is marked “A”)”.
`CC1(C)CS(=O)(=O)CCc2c(c(F)cc3[nH]ccc23)Oc2ccc(F)c(c2)-c2ccnn2C(c2cccc(CCC(=O)O)c2)CCO1` (single isomer, unassigned) [Compound 88, 3-[3-(23,29-Difluoro-11,11-dimethyl-13,13-dioxo-10,25-dioxa-13λ6-thia-5,6,20-triazapentacyclo[24.3.1.02,6.016,24.017,21]triaconta-1(30),2,4,16,18,21,23,26,28-nonaen-7-yl)phenyl]propanoic Acid] was tested, and the “DSLS 3D (100 μM ΔT)” value was “A (an ΔTagg value less than or equal to 5 °C is marked “A”)”.
With `Cn1nc2nc1-c1cc(ccc1F)Oc1c(F)cc3[nH]ccc3c1CCS(=O)(=O)CC(C)(C)COCC2(C)c1cccc(CCC(=O)O)c1` (single isomer, unassigned) [Compound 89A, 3-[3-(22,28-difluoro-3,6,10,10-tetramethyl-12,12-dioxo-8,24-dioxa-12λ6-thia-3,4,19,30-tetrazapentacyclo[23.3.1.12,5.015,23.016,20]triaconta-1(29),2(30),4,15,17,20,22,25,27-nonaen-6-yl)phenyl]propanoic Acid] the “DSLS 3D (100 μM ΔT)” value was “C (a value greater than 10 °C and less than or equal to 25 °C is marked “C”)”.
For `Cn1nc2nc1-c1cc(ccc1F)Oc1c(F)cc3[nH]ccc3c1CCS(=O)(=O)CC(C)(C)COCC2(C)c1cccc(CCC(=O)O)c1` (single isomer, unassigned) [Compound 89B, 3-[3-(22,28-difluoro-3,6,10,10-tetramethyl-12,12-dioxo-8,24-dioxa-12λ6-thia-3,4,19,30-tetrazapentacyclo[23.3.1.12,5.015,23.016,20]triaconta-1(29),2(30),4,15,17,20,22,25,27-nonaen-6-yl)phenyl]propanoic Acid], the “DSLS 3D (100 μM ΔT)” value was “A (an ΔTagg value less than or equal to 5 °C is marked “A”)”.
For `Cn1nc2nc1-c1cc(ccc1F)Oc1c(F)cc3[nH]ccc3c1CCS(=O)(=O)CC(C)(C)CCCC2(C)c1cccc(C(O)CO)c1` (single isomer, unassigned) [Compound 90A, 1-[3-(22,28-difluoro-3,6,10,10-tetramethyl-12,12-dioxo-24-oxa-12λ6-thia-3,4,19,30-tetrazapentacyclo[23.3.1.12,5.015,23.016,20]triaconta-1(29),2(30),4,15,17,20,22,25,27-nonaen-6-yl)phenyl]ethane-1,2-diol], the “DSLS 3D (100 μM ΔT)” value was “C (a value greater than 10 °C and less than or equal to 25 °C is marked “C”)”.
`Cn1nc2nc1-c1cc(ccc1F)Oc1c(F)cc3[nH]ccc3c1CCS(=O)(=O)CC(C)(C)CCCC2(C)c1cccc(C(O)CO)c1` (single isomer, unassigned) [Compound 90B, 1-[3-(22,28-difluoro-3,6,10,10-tetramethyl-12,12-dioxo-24-oxa-12λ6-thia-3,4,19,30-tetrazapentacyclo[23.3.1.12,5.015,23.016,20]triaconta-1(29),2(30),4,15,17,20,22,25,27-nonaen-6-yl)phenyl]ethane-1,2-diol] was tested, and the “DSLS 3D (100 μM ΔT)” value was “A (an ΔTagg value less than or equal to 5 °C is marked “A”)”.
With `CC(Cc1cccc(C2(CNCC(F)F)CCCC(C)(C)CS(=O)(=O)CCc3c(c(F)cc4[nH]ccc34)Oc3ccc(F)c(c3)-c3nc2nn3C)c1)C(=O)O` (single isomer, unassigned) [Compound 137A, 3-[3-[6-[(2,2-difluoroethylamino)methyl]-22,28-difluoro-3,10,10-trimethyl-12,12-dioxo-24-oxa-12λ6-thia-3,4,19,30-tetrazapentacyclo[23.3.1.12,5.015,23.016,20]triaconta-1(29),2(30),4,15,17,20,22,25,27-nonaen-6-yl]phenyl]-2-methyl-propanoic Acid] the “DSLS 3D (100 μM ΔT)” value was “C (a value greater than 10 °C and less than or equal to 25 °C is marked “C”)”.
`C[C@@H](Cc1cncc(C2(C)CCCC(C)(C)CS(=O)(=O)CCc3c(c(F)cc4[nH]ccc34)Oc3ccnc(c3)-c3nc2nn3C)c1)C(=O)O` (single isomer, unassigned) [Compound 299A] was tested, and the “DSLS 3D (100 μM ΔT)” value was “A (an ΔTagg value less than or equal to 5 °C is marked “A”)”.
`C[C@@H](Cc1cncc(C2(C)CCCC(C)(C)CS(=O)(=O)CCc3c(c(F)cc4[nH]ccc34)Oc3ccnc(c3)-c3nc2nn3C)c1)C(=O)O` (single isomer, unassigned) [Compound 299B] was tested, and the “DSLS 3D (100 μM ΔT)” value was “B (a value above 5 °C and less than or equal to 10 °C is marked “B”)”.
For `C[C@@H](Cc1cncc(C2(C)CCCC(C)(C)CS(=O)(=O)CCc3c(c(F)c(F)c4[nH]ccc34)Oc3ccnc(c3)-c3nc2nn3C)n1)C(=O)O` (single isomer, unassigned) [Compound 300A], the “DSLS 3D (100 μM ΔT)” value was “A (an ΔTagg value less than or equal to 5 °C is marked “A”)”.
With `C[C@@H](Cc1cncc(C2(C)CCCC(C)(C)CS(=O)(=O)CCc3c(c(F)c(F)c4[nH]ccc34)Oc3ccnc(c3)-c3nc2nn3C)n1)C(=O)O` (single isomer, unassigned) [Compound 300B] the “DSLS 3D (100 μM ΔT)” value was “A (an ΔTagg value less than or equal to 5 °C is marked “A”)”.
For `Cn1nc2nc1-c1cc(ccc1F)[S+]([O-])c1c(F)cc3[nH]ccc3c1CCS(=O)(=O)CC(C)(C)CCC[C@]2(C)c1cccc([C@H](O)CO)c1` (single isomer, unassigned) [Compound 302B], the “DSLS 3D (100 μM ΔT)” value was “B (a value above 5 °C and less than or equal to 10 °C is marked “B”)”.
In the case of `Cn1nc2nc1-c1cc(ccc1F)[S+]([O-])c1c(F)c(F)c3[nH]ccc3c1CCS(=O)(=O)CC(C)(C)CCC[C@]2(C)c1cccc(CC2(C(=O)O)CC2)c1` (single isomer, unassigned) [Compound 303B], the “DSLS 3D (100 μM ΔT)” value is reported as “A (an ΔTagg value less than or equal to 5 °C is marked “A”)”.
For `Cn1nc2nc1-c1cc(ccn1)[S+]([O-])c1c(F)c(F)c3[nH]ccc3c1CCS(=O)(=O)CC(C)(C)CCC[C@]2(C)c1cccc(CC2(C(=O)O)CC2)c1` (single isomer, unassigned) [Compound 309], the “DSLS 3D (100 μM ΔT)” value was “B (a value above 5 °C and less than or equal to 10 °C is marked “B”)”.
For `C[C@@H](Cc1cccc(C2(C)CCCC(C)(C)CS(=O)(=O)CCc3c(c(F)cc4[nH]ccc34)Sc3ccnc(c3)-c3nc2nn3C)n1)C(=O)O` (single isomer, unassigned) [Compound 314A], the “DSLS 3D (100 μM ΔT)” value was “A (an ΔTagg value less than or equal to 5 °C is marked “A”)”.
With `C[C@@H](Cc1cccc(C2(C)CCCC(C)(C)CS(=O)(=O)CCc3c(c(F)cc4[nH]ccc34)Sc3ccnc(c3)-c3nc2nn3C)n1)C(=O)O` (single isomer, unassigned) [Compound 314B] the “DSLS 3D (100 μM ΔT)” value was “B (a value above 5 °C and less than or equal to 10 °C is marked “B”)”.
In the case of `C[C@@H](Cc1cccc(C2(C)CCCC(C)(C)CS(=O)(=O)CCc3c(c(F)cc4[nH]ccc34)[S+]([O-])c3ccnc(c3)-c3nc2nn3C)n1)C(=O)O` (single isomer, unassigned) [Compound 315A], the “DSLS 3D (100 μM ΔT)” value is reported as “A (an ΔTagg value less than or equal to 5 °C is marked “A”)”.
`C[C@@H](Cc1cccc(C2(C)CCCC(C)(C)CS(=O)(=O)CCc3c(c(F)cc4[nH]ccc34)[S+]([O-])c3ccnc(c3)-c3nc2nn3C)n1)C(=O)O` (single isomer, unassigned) [Compound 315B] was tested, and the “DSLS 3D (100 μM ΔT)” value was “A (an ΔTagg value less than or equal to 5 °C is marked “A”)”.
